Test results: patent publication US10793529B2, “Substituted pyridazines and 1,2,4-triazines as prostacyclin receptor modulators” (Arena Pharmaceuticals, Inc., priority 2008, dated 2020)
One block for each compound: values may come before it.

Assays:
human PRP = assay: Human platelet aggregation inhibition test; format: cell-based; conditions: ADP-induced aggregation (1×10^−5 M ADP) in human platelet-rich plasma
Method: Blood collected from healthy human volunteers in aqueous trisodium citrate solution was centrifuged at 150 g for 15 min and the upper layer was recovered to obtain platelet-rich plasma (PRP). The residual blood was centrifuged at 3000 g for 10 min and the supernatant was collected as platelet-poor plasma (PPP). Platelet concentration in the PRP was determined using the Z series Beckman Coulter particle counter (Beckman, Fullerton, Calif.) and adjusted to 250,000 platelets/μL using PPP. 480 μL of PRP was pre-incubated at 37° C. and stirred at 1200 rpm with 10 μL aqueous test compound solution for 1 min prior to induction of aggregation by the addition of 10 μL of aqueous adenosine diphosphate (ADP) solution to adjust the final ADP concentration in the PRP to 1×10^−5 M. The maximal amplitude of aggregation response within 3 min was determined and measured in triplicate using the Chronolog model 490 aggregometer (Chrono-log Corp., Havertown, Pa.). Percent inhibition of aggregation was calculated from the maximum decrease in optical density of the control (addition of water in place of the test compound solution) sample and of the samples containing test compound. The test compound was added to adjust the final concentration to the range 10^−9 to 10^−4 M, and IC50 values were determined by inhibition percentage of aggregation at each concentration.

[1] = molecular target: human prostacyclin (PGI2) receptor (Homo sapiens (Human), UniProt P43119); assay: HTRF assay for direct cAMP measurement; format: cell-based; conditions: recombinant CHO-K1 cells stably transfected with human prostacyclin receptor; cAMP increase
Text: Compounds were screened for agonists of the human prostacyclin (PGI2) receptor using the HTRF® assay for direct cAMP measurement (Gabriel et al., ASSAY and Drug Development Technologies, 1:291-303, 2003) and recombinant CHO-K1 cells stably transfected with human prostacyclin receptor. CHO-K1 cells were obtained from ATCC® (Manassas, Va.; Catalog # CCL-61). An agonist of the prostacyclin receptor was detected in HTRF® assay for direct cAMP measurement as a compound which increased cAMP concentration. HTRF® assay also was used to determine EC50 values for prostacyclin receptor agonists.
The HTRF® assay kit was purchased from Cisbio-US, Inc. (Bedford, Mass.; Catalog #62AM4PEC). The HTRF® assay supported by the kit is a competitive immunoassay between endogenous cAMP produced by the CHO-K1 cells and tracer cAMP labeled with the dye d2. The tracer binding is visualized by a monoclonal anti-cAMP antibody labeled with Cryptate. The specific signal (i.e., fluorescence resonance energy transfer, FRET) is inversely proportional to the concentration of unlabeled cAMP in the standard or sample.
The fluorescence ratio (665 nm/620 nm) of the standards (0.17 to 712 nM cAMP) included in the assay was calculated and used to generate a cAMP standard curve according to the kit manufacturer's instructions. The fluorescence ratio of the samples (test compound or compound buffer) was calculated and used to deduce respective cAMP concentrations by reference to the cAMP standard curve.
The HTRF® assay was carried out using a two-step protocol essentially according to the kit manufacturer's instructions, in 20 μL total volume per well in 384-well plate format (ProxiPlates; PerkinElmer, Fremont, Calif.; catalog #6008280). To each of the experimental wells was transferred 3000 recombinant CHO-K1 cells in 5 μL assay buffer (phosphate buffered saline containing calcium chloride and magnesium chloride (Invitrogen, Carlsbad, Calif.; catalog #14040) supplemented with IBMX ([…]) and rolipram ([…]) (phosphodiesterase inhibitors; Sigma-Aldrich, St. Louis, Mo.; catalog #15879 and catalog # R6520, respectively) and 0.1% bovine serum albumin (BSA) fraction V (Sigma-Aldrich; catalog # A3059)), followed by test compound in 5 μL assay buffer or 5 μL assay buffer. The plate was then incubated at room temperature for 1 h. To each well was then added 5 μL cAMP-d2 conjugate in lysis buffer and 5 μL Cryptate conjugate in lysis buffer according to the kit manufacturer's instructions. The plate was then further incubated at room temperature for 1 h, after which the assay plate was read.
The HTRF® readout was accomplished using a PHERAstar (BMG LABTECH Inc., Durham, N.C.) or EnVision™ (PerkinElmer, Fremont Calif.) microplate reader.

[2] = system: MCT-induced pulmonary arterial hypertension in rat; assay: Rat monocrotaline (MCT) model of pulmonary arterial hypertension; format: in vivo; conditions: 30 mg/kg oral gavage twice a day for 21 days, male Wistar rats, 60 mg/kg MCT s.c.; FIG. 1
Method: Male Wistar rats (100-150 g at start of study) (Charles River Laboratories, Wilmington, Mass.) were housed two per cage and maintained in a humidity-(40-60%) and temperature-(68-72° F.) controlled facility on a 12 hr: 12 hr light/dark cycle (lights on at 6:30 am) with free access to food (Harlan Teklad, Orange Calif., Rodent Diet 8604) and water. Rats were allowed one week of habituation to the animal facility before testing.
The rat monocrotaline (MCT) model is a standard and well-accepted model of pulmonary arterial hypertension. MCT induces acute pulmonary endothelial damage associated with pulmonary vascular inflammation. […]
Rats were randomly given a single subcutaneous injection of either 60 mg/kg MCT (Sigma, St. Louis, Mo.) or 0.9% saline (sham) and assigned to receive oral administration of 20% hydroxypropyl beta-cyclodextrin (vehicle) or test compound (30 mg/kg; FIG. 1). […] Heart chamber weights were measured on Day 22. […] The ratio of right ventricular (RV) weight to left ventricle plus septum (LV+S) weight (this ratio is indicated as “RV/(LV+S)” in FIG. 1) was calculated as an index of the hypertrophic response to the induced pulmonary arterial hypertension and, as such, as an index of a test compound's therapeutic efficacy for pulmonary arterial hypertension.

human prostacyclin (PGI2) receptor, sequence (P43119 whole entry): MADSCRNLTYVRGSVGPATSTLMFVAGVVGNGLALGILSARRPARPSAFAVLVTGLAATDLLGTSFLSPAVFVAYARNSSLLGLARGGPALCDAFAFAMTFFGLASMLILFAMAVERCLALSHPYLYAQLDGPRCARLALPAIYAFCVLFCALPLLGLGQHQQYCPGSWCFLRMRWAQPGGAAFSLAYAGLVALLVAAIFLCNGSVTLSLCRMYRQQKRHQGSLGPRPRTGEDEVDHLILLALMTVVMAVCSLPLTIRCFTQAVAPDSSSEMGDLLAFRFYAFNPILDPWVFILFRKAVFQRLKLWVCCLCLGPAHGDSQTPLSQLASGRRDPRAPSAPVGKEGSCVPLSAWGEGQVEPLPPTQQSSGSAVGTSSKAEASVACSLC

SMILES: O=C(O)COC[C@H]1CC[C@@H](Cn2nc(-c3ccccc3)c(-c3cccc(F)c3F)cc2=O)CC1 [Compound 8, 2-(((1s,4s)-4-((4-(2,3-difluorophenyl)-6-oxo-3-phenylpyridazin-1(6H)-yl)methyl)cyclohexyl)methoxy)acetic acid]
IC50 (human PRP): 0.067 µM

SMILES: O=C(O)COC[C@H]1CC[C@@H](Cn2nc(-c3ccccc3)c(-c3cccc(Cl)c3F)cc2=O)CC1 [Compound 31, 2-(((1s,4s,)-4-((4-(3-chloro-2-fluorophenyl)-6-oxo-3-phenylpyridazin-1(6H)-yl)methyl)cyclohexyl)methoxy)acetic acid]
IC50 (human PRP): 0.021 µM
EC50 [1]: 31 nM

SMILES: Cc1ccc(-c2nc(=O)n(C[C@H]3CC[C@@H](COCC(=O)O)CC3)nc2-c2ccc(C)cc2)cc1 [Compound 43, 2-(((1s,4s)-4-((3-oxo-5,6-di-p-tolyl-1,2,4-triazin-2(3H)-yl)methyl)cyclohexyl)methoxy)acetic acid]
IC50 (human PRP): 0.13 µM
EC50 [1]: 36 nM

EC50 [1]: 73 nM
SMILES: O=C(O)COC[C@H]1CC[C@@H](Cn2nc(-c3ccccc3)c(-c3cccc(Cl)c3)nc2=O)CC1 [Compound 67, 2-(((1s,4s)-4-((5-(3-chlorophenyl)-3-oxo-6-phenyl-1,2,4-triazin-2(3H)-yl)methyl)cyclohexyl)methoxy)acetic acid]

SMILES: Cc1ccc(-c2nn(C[C@H]3CC[C@@H](COCC(=O)O)CC3)c(=O)nc2-c2ccccc2)cc1 [Compound 68, 2-(((1s,4s)-4-((3-oxo-5-phenyl-6-p-tolyl-1,2,4-triazin-2(3H)-yl)methyl)cyclohexyl)methoxy)acetic acid]
right ventricle hypertrophic response, RV/(LV+S) [2]: inhibited the hypertrophic response

SMILES: COc1ccc(-c2nn(C[C@H]3CC[C@@H](COCC(=O)O)CC3)c(=O)nc2-c2ccccc2)cc1 [Compound 69, 2-(((1s,4s)-4-((6-(4-methoxyphenyl)-3-oxo-5-phenyl-1,2,4-triazin-2(3H)-yl)methyl)cyclohexyl)methoxy)acetic acid]
IC50 (human PRP): 0.022 µM
EC50 [1]: 8 nM
